Reference: paper PMC5522529, “Mechanisms of Paradoxical Activation of AMPK by the Kinase Inhibitors SU6656 and Sorafenib” (Cell Chemical Biology, 2017)

How the values were obtained:
LKB1 = target: T1, LKB1 (Homo sapiens, UniProt Q15831); experiment: LKB1 assay using LKBtide peptide substrate; assay type: biochemical; details: alternative peptide substrate (LKBtide)
T1 construct: made in house; host or cells: Sf9 cells
Protocol: We next used unphosphorylated α2-KD and tested the effect of SU6656 on its activation and phosphorylation by LKB1. […] There was no effect of SU6656 when LKB1 was assayed using an alternative peptide substrate (Figure S3), confirming that it acts by binding to AMPK rather than to LKB1. The half-maximal effect of SU6656 on α2-KD activation was at 0.20 ± 0.02 μM, close to the IC50 for inhibition of catalytic activity (0.22 ± 0.02 μM).
Endogenous AMPK was immunoprecipitated using the specified antibodies (for total AMPK, an equal mixture of anti-α1 and –α2 antibodies) and assayed at 200 μM ATP ([Hardie et al., 2000], [Towler et al., 2008]) using the AMARA peptide ([Dale et al., 1995]) as substrate, except for assays of allosteric activation by AMP (Figure 5A) where the SAMS peptide was used as substrate with 2 mM ATP ([Gowans et al., 2013]). The AMPK-related kinases SIK1, SIK2, SIK3, SNARK, MARK2/3 and MARK4 were immunoprecipitated and assayed as previously described ([Lizcano et al., 2004]) in lysates of Hela cells stably expressing LKB1 ([Fogarty et al., 2010]). LKB1 was assayed using the LKBtide peptide as substrate ([Sakamoto et al., 2004]).
LKB1 was assayed using the LKBtide peptide as substrate as
described in the Star Methods section.

[1] = test system: AMPK-related kinases SIK1, SIK2, SIK3, SNARK, MARK2/3 and MARK4; experiment: AMPK-related kinase activity in HeLa cells stably expressing LKB1; assay type: cell-based, human; details: HeLa cells expressing LKB1, 100 μM, 1 hr
Protocol: Figure 1 SU6656 Activates AMPK but Not AMPK-Related Kinases (A) HEK293 cells were incubated with the indicated concentrations of SU6656 or berberine (300 μM) for 1 hr; total AMPK activity was assayed in immunoprecipitates (top; mean ± SEM, n = 4), and phosphorylation of AMPK (Thr172), ACC (Ser80), and Raptor (Ser792) analyzed by western blotting (bottom; n = 2). (B) HEK293 cells were incubated with 100 μM SU6656 (1 hr), AMPK complexes containing α1, α2, β1, and β2 immunoprecipitated using isoform-specific antibodies, and AMPK activity measured (mean ± SEM, n = 4). (C) HeLa cells stably expressing LKB1 ([Fogarty et al., 2010]) were incubated with 100 μM SU6656 for 1 hr, AMPK or individual ARKs immunoprecipitated, and kinase assays carried out (antibodies that distinguish MARK2/MARK3 were not available, so they were assayed together). Results are means ± SEM (n = 2). In all panels, asterisks indicate significant differences from controls without SU6656. *p < 0.05, **p < 0.01, ****p < 0.0001. […]

AMPK-γ1 complexes (WT) = target: T2, AMPK-γ1 complexes (WT) (Homo sapiens, UniProt P54619); experiment: Activation by LKB1 of FLAG-AMPK-γ1 (WT) complexes precipitated from HeLa cells; assay type: biochemical; details: AMP 200 μM or SU6656 3 μM, 10 min
T2 construct: Plasmid encoding full-length human AMPK-γ1; expressed in transfected cells; host or cells: HeLa
T2 sequence (P54619 whole entry, one chain of several): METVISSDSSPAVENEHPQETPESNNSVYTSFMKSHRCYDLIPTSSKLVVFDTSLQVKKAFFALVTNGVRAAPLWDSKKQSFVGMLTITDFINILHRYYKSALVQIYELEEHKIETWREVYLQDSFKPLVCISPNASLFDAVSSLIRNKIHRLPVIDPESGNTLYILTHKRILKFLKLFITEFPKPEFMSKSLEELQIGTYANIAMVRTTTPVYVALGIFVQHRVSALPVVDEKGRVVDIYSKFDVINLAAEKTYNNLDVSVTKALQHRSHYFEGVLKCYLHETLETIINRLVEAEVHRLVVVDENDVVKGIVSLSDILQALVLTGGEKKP
Source text: (B) Effect of ATP concentration on kinase activity of α2-KD in the presence of increasing concentrations of SU6656. Results (mean, n = 2) were fitted to the equation Y= (Vmax × X)/(Km × (1 + I/Ki) + X), where Y is the activity, X is the ATP concentration, I is the concentration of SU6656, and Ki is the inhibitory constant for SU6656. […] (D and E) Effect of increasing concentrations of SU6656 on activity (D) and Thr172 phosphorylation (E) induced by LKB1 with unphosphorylated α2-KD (WT/AT mutant). Results in (D) are mean ± SEM (n = 3); and were fitted to same equation as Figure 4C. […] See also Figure S3. (F) Effect of AMP (2 mM) and SU6656 on inactivation of AMPK by PP2Cα in the presence of 5 mM ATP. […] (G) Effects of AMP or SU6656 on activation (top) and Thr172 phosphorylation (bottom) by LKB1 of AMPK-γ1 complexes expressed in HeLa cells. FLAG-tagged AMPK-γ1, either wild-type (WT) or R299G mutant (RG), was expressed in HeLa cells and AMPK complexes precipitated using anti-FLAG antibody. The complexes (which have low basal phosphorylation due to lack of LKB1 in HeLa cells) were incubated with or without a limiting amount of LKB1, AMP (200 μM) or SU6656 (3 μM) for 10 min and AMPK activity determined. […]

AMPK = assay type: cell-based, mouse; details: SYF cells, 1 hr
Protocol: We next tested the effect of SU6656 in SYF cells, which are mouse embryo fibroblasts (MEFs) with null alleles for Src, Yes, and Fyn, the three Src kinases expressed in MEFs ([Klinghoffer et al., 1999]).
Top: AMPK activity (mean ± SEM, n = 4); bottom: western blots showing phosphorylation of Thr172 on AMPK, and of ERK1/2, in cells treated with DMSO (control), SU6656 (100 μM), or PP2 (100 nM) (n = 2). (B) As (A), but in SYF cells. (C) HeLa cells were transfected with DNAs encoding GFP alone, or GFP fused to WT, Y261F/Y365F (FF), or Y36F/Y261F/Y365F (FFF) mutants of LKB1; cells were treated with increasing concentrations of SU6656 for 1 hr and AMPK activity determined (mean ± SEM, n = 4). See also Figure S1. (D) HEK293 cells were transfected with DNAs encoding FLAG-tagged AMPK-α2 with or without a Y436F mutation. Cells were incubated with DMSO (control), 100 μM SU6656, 10 mM phenformin, or 10 μM A23187 for 1 hr; AMPK complexes were immunoprecipitated using anti-FLAG antibody and assayed. The top panels show kinase activities (mean ± SD, n = 3); the bottom panels show blots from the same experiment (n = 2). In all panels, asterisks indicate significant differences from DMSO controls; in (D), there were no significant differences between the WT and Y463F mutant. **p < 0.01, ****p < 0.0001. […]

LKB1 versus AMPK = test system: LKB1 versus AMPK; parameters: method as in MRC Kinase Inhibitor Database; details: ref MRC Kinase Inhibitor Database; cited from earlier work

T1 sequence (Q15831 whole entry): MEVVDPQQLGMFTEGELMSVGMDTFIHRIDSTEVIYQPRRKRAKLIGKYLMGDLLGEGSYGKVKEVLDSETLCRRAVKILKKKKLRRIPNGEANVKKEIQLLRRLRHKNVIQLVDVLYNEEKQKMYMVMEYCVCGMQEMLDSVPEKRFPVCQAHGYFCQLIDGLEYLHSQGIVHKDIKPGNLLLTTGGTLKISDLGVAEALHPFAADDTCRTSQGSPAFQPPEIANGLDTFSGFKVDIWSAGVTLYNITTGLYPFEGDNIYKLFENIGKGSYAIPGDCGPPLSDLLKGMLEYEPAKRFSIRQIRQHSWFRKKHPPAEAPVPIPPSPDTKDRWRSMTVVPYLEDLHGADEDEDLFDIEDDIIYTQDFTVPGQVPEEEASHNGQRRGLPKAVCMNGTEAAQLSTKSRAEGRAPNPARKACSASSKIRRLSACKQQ
T1 sequence (Q7RTN6 whole entry partner): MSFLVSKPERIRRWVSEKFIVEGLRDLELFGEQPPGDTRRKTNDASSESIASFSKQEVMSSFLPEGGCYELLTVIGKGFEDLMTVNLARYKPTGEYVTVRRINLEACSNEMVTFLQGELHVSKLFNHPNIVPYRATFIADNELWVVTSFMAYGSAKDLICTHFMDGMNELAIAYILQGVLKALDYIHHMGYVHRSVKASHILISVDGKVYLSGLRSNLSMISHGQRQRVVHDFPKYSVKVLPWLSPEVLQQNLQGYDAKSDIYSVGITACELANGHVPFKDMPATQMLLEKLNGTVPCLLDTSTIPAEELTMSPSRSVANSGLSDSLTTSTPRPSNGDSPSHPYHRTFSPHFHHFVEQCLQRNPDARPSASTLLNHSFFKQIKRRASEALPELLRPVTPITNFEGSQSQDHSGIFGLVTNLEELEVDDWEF
T1 sequence (Q9Y376 whole entry partner): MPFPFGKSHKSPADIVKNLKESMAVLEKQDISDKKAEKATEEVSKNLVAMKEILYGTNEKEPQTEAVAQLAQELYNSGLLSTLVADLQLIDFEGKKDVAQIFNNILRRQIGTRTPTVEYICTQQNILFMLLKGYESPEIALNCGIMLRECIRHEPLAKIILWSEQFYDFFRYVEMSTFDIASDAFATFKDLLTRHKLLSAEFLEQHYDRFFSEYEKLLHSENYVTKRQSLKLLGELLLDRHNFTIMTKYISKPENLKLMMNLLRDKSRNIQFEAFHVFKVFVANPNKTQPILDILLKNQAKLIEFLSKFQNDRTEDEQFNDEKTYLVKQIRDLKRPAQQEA

effect on LKB1 activity (LKB1): no effect
SMILES: CN(C)S(=O)(=O)c1ccc2c(c1)/C(=C/c1cc3c([nH]1)CCCC3)C(=O)N2 [SU6656]
activity of AMPK-related kinases (ARKs) [1]: none of the ARKs assayed were activated
activation and Thr172 phosphorylation by LKB1 (AMPK-γ1 complexes (WT)): promoted activation and increased Thr172 phosphorylation
AMPK activity / Thr172 phosphorylation (AMPK): still activated and increased Thr172 phosphorylation of AMPK
potency of LKB1 inhibition relative to AMPK inhibition (LKB1 versus AMPK): inhibition of LKB1 was less potent than that of AMPK
